Laboratory results reported in US20250236616A1, “IMMUNOMODULATING AZALIDES” (Zoetis Services LLC, priority 2021, published 2025).

Columns and labels:
S. aureus = experiment: MIC, S. aureus; assay type: cell-based; settings: Staphylococcus aureus; S. aureus 29213
Description: (§1) Primary screening of the compounds of the invention included the evaluation of antibacterial activity of analogs through determination of microbial inhibition concentration (MIC) as per CLSI guidelines. The screening panel included the relevant BRD pathogens: 1) M. haemolytica (e.g., 12726, 46571 and 49023, all AHDRCC; and 33396 (ATCC)); and 2) P. multocida (e.g., 34135 and 46572 (both AHDRCC) and 43137 (ATCC)). In some instances, H. somni (A700025K) pathogens were also included in the screening panel. The AHDRCC strains originated from the Zoetis BRD/SRD surveillance program and refer to the Animal Health Development and Research Culture Collection. In addition, the screen assessed S. aureus (29213 ATCC) as a representative Gram-positive isolate, E.faecalis (19433 ATCC) as a commensal gram-positive gastrointestinal bacterium and E. coli (100, 3110 and 25922 (ATCC)) for the evaluation of efflux potential. The screening panel BRD pathogens were assessed in determining antibacterial activity of the Formula (1) compounds.
(§2) All relevant BRD pathogens were initially screened at a top concentration of 64 μg/mL of a Formula (1) compound in an eleven-point dilution series. […] If an Example was purified further, the MICs moved […] essentially two dilutions across all strains tested in the screening panel.
(§3) In-Vitro MIC Model Compounds were analyzed for antibacterial activity against a panel of animal health specific gram-positive and gram-negative clinical strains by diluting compounds in DMSO to an appropriate stock concentration to determine the Minimal Inhibitory Concentration (MIC) via a semi-automated broth micro-dilution method (CLSI reference method) with QC strains and anti-microbial agent(s). Specifically, bacteria were grown overnight on TSA w/5% sheep blood agar plates and diluted in saline buffer to a McFarland Standard 0.5, then further diluted in cation-ion adjusted Mueller Hinton Broth to a final concentration of approximately 5×10^5 CFU/mL. 100 μL of inoculated media was added to 96-well plate(s) with 3 μL of serially diluted compound in each row. Depending on strain (see CLSI reference method), bacteria were incubated 18-22 hours at 35-37° C. in ambient air, with 5% CO2 or anaerobically (up to 48 hours).

P. multocida = experiment: MIC, P. multocida strains; assay type: cell-based; settings: Pasteurella multocida
Description: as §1, §2, §3

[1] = P. multocida 46572, murine efficacy challenge strain

Row | Compound | MIC (S. aureus) [µg/mL] | MIC (P. multocida; P. multocida 43137) [µg/mL] | MIC (P. multocida; [1]) [µg/mL]
1 | CC[C@H]1OC(=O)[C@H](C)[C@@H](O)[C@H](C)[C@@H](O[C@@H]2O[C@H](C)C[C@H](N(C)S(=O)(=O)c3ccccc3)[C@H]2Oc2ccc(OC)cc2)[C@](C)(O)C[C@@H](C)CN[C@H](C)[C@@H](O)[C@]1(C)O [Example A-9, N-((2S,3R,4S,6R)-2-(((2R,3S,4R,5R,8R,10R,11R,12S,13S,14R)-2-ethyl-3,4,10,13-tetrahydroxy-3,5,8,10, 12, 14-hexamethyl-15-oxo-1-oxa-6-azacyclopentadecan-11-yl)oxy)-3-(4-methoxyphenoxy)-6-methyltetrahydro-2H-pyran-4-yl)-N-methylbenzenesulfonamide] | > 64 | > 64 | > 64
2 | CCCNC[C@]1(O)[C@H](C)O[C@@H](O[C@H]2[C@H](C)[C@@H](O[C@@H]3O[C@H](C)C[C@H](N(C)S(=O)(=O)c4ccc(C)cc4)[C@H]3O)[C@](C)(O)C[C@@H](C)CN[C@H](C)[C@@H](O)[C@](C)(O)[C@@H](CC)OC(=O)[C@@H]2C)C[C@@]1(C)OC [Example B-26, N-((2S,3R,4S,6R)-2-(((2R,3S,4R,5R,8R,10R,11R,12S,13S,14R)-2-ethyl-3,4,10-trihydroxy-13-(((2R,4R,5S,6S)-5-hydroxy-4-methoxy-4,6-dimethyl-5-((propylamino)methyl)tetrahydro-2H-pyran-2-yl)oxy)-3,5,8,10,12,14-hexamethyl-15-oxo-1-oxa-6-azacyclopentadecan-11-yl)oxy)-3-hydroxy-6-methyltetrahydro-2H-pyran-4-yl)-N,4-dimethylbenzenesulfonamide] | > 64 | > 64 | > 64
3 | CCCNC[C@]1(O)[C@H](C)O[C@@H](O[C@H]2[C@H](C)[C@@H](O[C@@H]3O[C@H](C)C[C@H](N(C)S(=O)(=O)Nc4ccc(C(F)(F)F)cc4)[C@H]3O)[C@](C)(O)C[C@@H](C)CN[C@H](C)[C@@H](O)[C@](C)(O)[C@@H](CC)OC(=O)[C@@H]2C)C[C@@]1(C)OC [Example B-50, (2R,3S,4R,5R,8R,10R,11R,12S,13S, 14R)-2-ethyl-3,4,10-trihydroxy-13-[(2R,4R,5S,6S)-5-hydroxy-4-methoxy-4,6-dimethyl-5-(propylaminomethyl)oxan-2-yl]oxy-11-[(2S,3R,4S,6R)-3-hydroxy-6-methyl-4-[methyl-[[4-(trifluoromethyl)phenyl]sulfamoyl]amino]oxan-2-yl]oxy-3,5,8, 10, 12, 14-hexamethyl-15-oxo-1-oxa-6-azacyclopentadecane] | > 64 | > 64 | > 64
4 | CC[C@H]1OC(=O)[C@H](C)[C@@H](O[C@H]2C[C@@](C)(OC)[C@](O)(CN3CCCCC3)[C@H](C)O2)[C@H](C)[C@@H](O[C@@H]2O[C@H](C)C[C@H](N(C)S(=O)(=O)c3ccc(Cl)cc3)[C@H]2O)[C@](C)(O)C[C@@H](C)CN[C@H](C)[C@@H](O)[C@]1(C)O [Example C-4, 4-chloro-N-((2S,3R,4S,6R)-2-(((2R,3S,4R,5R,8R,10R,11R,12S,13S,14R)-2-ethyl-3,4,10-trihydroxy-13-(((2R,4R,5S,6S)-5-hydroxy-4-methoxy-4,6-dimethyl-5-(piperidin-1-ylmethyl)tetrahydro-2H-pyran-2-yl)oxy)-3,5,8, 10, 12, 14-hexamethyl-15-oxo-1-oxa-6-azacyclopentadecan-11-yl)oxy)-3-hydroxy-6-methyltetrahydro-2H-pyran-4-yl)-N-methylbenzenesulfonamide] | > 128 | > 128 | > 128
5 | CC[C@H]1OC(=O)[C@H](C)[C@@H](O[C@H]2C[C@@](C)(OC)[C@](O)(CN3CCCCC3)[C@H](C)O2)[C@H](C)[C@@H](O[C@@H]2O[C@H](C)C[C@H](N(C)S(=O)(=O)Nc3ccc(C(F)(F)F)cc3)[C@H]2O)[C@](C)(O)C[C@@H](C)CN[C@H](C)[C@@H](O)[C@]1(C)O [Example C-11, (2R,3S,4R,5R,8R,10R,11R,12S, 13S, 14R)-2-ethyl-3,4, 10-trihydroxy-13-[(2R,4R,5S,6S)-5-hydroxy-4-methoxy-4,6-dimethyl-5-(piperidin-1-ylmethyl)oxan-2-yl]oxy-11-[(2S,3R,4S,6R)-3-hydroxy-6-methyl-4-[methyl-[[4-(trifluoromethyl)phenyl]sulfamoyl]amino]oxan-2-yl]oxy-3,5,8, 10, 12, 14-hexamethyl-15-oxo-1-oxa-6-azacyclopentadecane] | > 64 | > 64 | > 64
